Reference: patent US12628858B2, “Therapy for colorectal and small intestine cancers” (Cornell University, priority 2019, dated 2026)

Test system: Tumors from APC-/- mice
Experiment: 13C isotopic tracing in APC-/- tumors ex vivo (LC-MS/MS)
Format: cell-based, mouse
Conditions: 10 min ex vivo

| Compound | percentage of fully labeled lactate [%] | F1P 13C-labeled at all six positions (M+6), percentage of labeling [%] |
| --- | --- | --- |
| O=[13CH][13C@H](O)[13C@@H](O)[13C@H](O)[13C@H](O)[13CH2]O [^13C-glucose, D-[U-^13C6]-Glucose] | 30.2 |  |
| O=[13C]([13CH2]O)[13C@@H](O)[13C@H](O)[13C@H](O)[13CH2]O [^13C-fructose, D-[U-^13C6]-Fructose] |  | 47.1 |
